In patent publication US11820747B2, “PPARG inverse agonists and uses thereof” (Flare Therapeutics Inc., priority 2021, dated 2023) one finds Emax, EC50 and inhibition data, which are given here for 15 compounds.

The target in assay [1] is T1, PPARG/RXRA LBD heterodimer (Homo sapiens, UniProt P37231).
T1 construct: His-TEV-Q203-Y477: Uniprot ID P37231-2; made in house; host or cells: E. coli
As to the kind of experiment: PPARγ-NCOR1 recruitment assay (TR-FRET, biotinylated NCOR1 ID2 peptide). The format is binding. The settings on record: for Emax: 3 h, maximal extent, T0070907 defined as 100%, DMSO 0%, read-out: % NCOR recruitment relative to T907; for EC50: TR-FRET, 80 nM Rosiglitazone, 3 hours incubation, read-out: PPARG-NCOR recruitment assay EC50. The method, then:
PPARγ-NCOR1 Recruitment Assay:
Compound potency (EC50) and maximal extent of NCOR1 recruitment to PPARG were assessed a TR-FRET binding assay measuring association of a biotinylated NCOR1 ID2 peptide (Biotin-[…]-amide) to PPARG/RXRA LBD heterodimer. Specifically, a 20 microliters of TR-FRET master mix consisting of 2 nM WT PPARG LBD (E. coli expressed, His-TEV-Q203-Y477: Uniprot ID P37231-2), 2 nM WT RXRA LBD or mutant S427F RXRA LBD (E. coli expressed, Flag-TEV-E228-T462; […]. Mixtures were incubated for 3 hours and read in an EnVision plate reader (Perkin Elmer) with […]. To determine the potency (EC50) and extent of NCOR1 recruitment, TR-FRET ratios were normalized to the average ratio of DMSO control wells (0%) and to the average maximum ratio for positive control compound (T0070907 (2-chloro-5-nitro-N-4-pyridinyl-benzamide); defined as 100%) in CDD Vault and analyzed using the Levenberg-Marquardt algorithm.
T1 sequence (O75376 2251-2273 partner, one chain of several): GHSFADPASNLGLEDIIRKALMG

Assay [2] concerns the target T2, PPARG/RXRA LBD heterodimer (Homo sapiens, UniProt P37231).
T2 construct: His-TEV-Q203-Y477; Uniprot ID P37231-2; made in house; host or cells: E. coli
T2 sequence (P37231 203-477 isoform P37231-2): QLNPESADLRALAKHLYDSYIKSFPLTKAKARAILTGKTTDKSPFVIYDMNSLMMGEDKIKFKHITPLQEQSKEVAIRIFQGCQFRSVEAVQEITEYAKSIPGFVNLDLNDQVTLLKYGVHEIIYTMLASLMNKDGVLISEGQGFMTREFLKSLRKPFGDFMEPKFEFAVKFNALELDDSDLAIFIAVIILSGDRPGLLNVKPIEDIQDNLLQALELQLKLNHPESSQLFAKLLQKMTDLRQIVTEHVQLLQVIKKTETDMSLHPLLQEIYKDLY
T2 sequence (P19793 228-462 partner limits assumed): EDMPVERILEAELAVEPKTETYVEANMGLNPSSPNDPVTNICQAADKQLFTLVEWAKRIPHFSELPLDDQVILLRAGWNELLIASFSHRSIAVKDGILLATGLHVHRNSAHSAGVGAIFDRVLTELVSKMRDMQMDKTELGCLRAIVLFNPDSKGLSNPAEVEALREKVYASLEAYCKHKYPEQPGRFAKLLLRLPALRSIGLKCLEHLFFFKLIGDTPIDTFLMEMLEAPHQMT
As to the kind of experiment: PPARγ-MED1 blockade assay (TR-FRET, biotinylated MED1 LxxLL peptide). The format is binding. The settings on record: for Emax: 3 h, maximal extent, GW9662 defined as 100%, DMSO 0%, read-out: % MED1 blockade relative to GW9662; for EC50: TR-FRET, 80 nM Rosiglitazone, 3 hours incubation. The protocol:
PPARγ-MED1 Blockade Assay:
Compound potency (ICs) and maximal extent of MED1 repulsion to PPARG were assessed a TR-FRET binding assay measuring association of a biotinylated MED1 LxxLL peptide (Biotin-[…]-amide) to PPARG/RXRA LBD heterodimer. Specifically, a 20 microliters of TR-FRET master mix consisting of 2 nM WT PPARG LBD (E. coli expressed, His-TEV-Q203-Y477; Uniprot ID P37231-2), 2 nM WT RXRA LBD (E. coli expressed, Flag-TEV-E228-T462; […]. Mixtures were incubated for 3 hours and read in an EnVision plate reader (Perkin Elmer) with […]. To determine the potency (ICso) and extent of MED1 repulsion. TR-FRET ratios were normalized to the average ratio of DMSO control wells (0%) and to the average minimum ratio for positive control compound (GW9662 (2-chloro-5-nitrobenzanilide); defined as 100%/6) in CDD Vault and analyzed using the Levenberg-Marquardt algorithm.

Assay [3] deals with ANGPTL4, a PPARG target gene, in HT1197 (RXRA S427F mutation) cells. The assay can be described thus: Bladder cancer pharmacodynamic assay, HT1197 cell assay (quantitative PCR of PPARG target genes). The settings on record: Homo sapiens; for inhibition at 0.1 µM: 100 nM compound, 24 hours, percentage of a DMSO control; for EC50: 24 hours treatment, qPCR. The format is cell-based. The protocol: Bladder Cancer Pharmacodynamic Assay
5637 (PPARG amplified) and HT1197 (RXRA S427F mutation) cells were used for assessment of modulation of PPARG target genes using quantitative PCR. Cells were treated for 24 hours with PPARG inverse agonists prior to analysis of FABP4 (IDT, Cat: Hs.PT 58.20106818) and ANGPTL4 (IDT, Cat: Hs.PT 58.25480012) expression, with expression of the housekeeping gene TBP (IDT, Cat: Hs.PT 58v.39858774) used to normalize expression across samples. Quantitative PCR was performed using an ABI QuantStudio 7 Flex Reaction system. Data were analyzed and reported relative to DMSO control using the comparative Ct method (ΔΔCt).
For orientation: Quantitative PCR measures a nucleic acid by following its amplification.

As for `N#Cc1ccc([S+]([O-])CC(F)(F)F)c(-c2cc(=O)c3c(F)cc(F)cc3[nH]2)c1` (centres unmarked) [Example 5], in assay [1], the Emax is over 100% and the EC50 (as a rule, the concentration giving half of the maximal effect) lay in the range of 1000 to 10000 nM. In addition, in assay [2], the Emax is over 100% and the EC50 is 1000 to 10000 nM. The inhibition – broadly, the change of the read-out against control, counted positive when it falls – at 0.1 µM in assay [3] turned out to be 15%.
As to `N#Cc1ccc(S(=O)(=O)CC(F)(F)F)c(-c2cc(=O)c3c(F)cc(F)cc3[nH]2)c1` [Example 4, 3-(5,7-difluoro-4-oxo-1,4-dihydroquinolin-2-yl)-4-((2,2,2-trifluoroethyl)sulfonyl)-benzonitrile], in assay [1], the Emax was over 100% and the EC50 was in the range of 100 to 1000 nM. Moreover, in assay [2], the Emax was over 100% and the EC50 is 100 to 1000 nM. This compound also gave an inhibition at 0.1 µM in assay [3] of 14%.
Regarding `CS(=O)(=O)c1ccc(C#N)cc1-c1cc(=O)c2c(F)cc(Cl)cc2[nH]1` [Example 10], the Emax in assay [1] and in assay [2] was over 100% in each case. In addition, the values for the concentration for a half-maximal effect (EC50) in assay [1], in assay [2] and in assay [3] were 10 to 100 nM, 10 to 100 nM and 1.6 nM, respectively. The inhibition at 0.1 µM in assay [3] was 89%.
As for `CSc1ccc(C#N)cc1-c1cc(=O)c2c(F)cc(F)cc2[nH]1` [Example 6, 3-(5,7-difluoro-4-oxo-1,4-dihydroquinolin-2-yl)-4-(methylthio)benzonitrile], the EC50 in assay [1] and in assay [2] was over 10000 nM in each case. Moreover, the inhibition at 0.1 µM in assay [3] came to 17%.
Regarding `Cc1ccc(-c2c(F)cc3[nH]c(-c4cc(C#N)ccc4S(C)(=O)=O)cc(=O)c3c2F)cn1` [Example 15, 3-(5,7-difluoro-6-(6-methylpyridin-3-yl)-4-oxo-1,4-dihydroquinolin-2-yl)-4-(methylsulfonyl)benzonitrile], in assay [1], the Emax was over 100% and the EC50 is 10 to 100 nM. Also, in assay [2], the Emax is over 100% and the concentration for a half-maximal effect (EC50) lay in the range of 10 to 100 nM. The compound further registered an inhibition at 0.1 µM in assay [3] of 68%.
Turning to `N#Cc1ccc(S(=O)(=O)C(F)(F)F)c(-c2cc(=O)c3c(F)cc(F)cc3[nH]2)c1` [Example 11], the Emax in assay [1] and in assay [2] was over 100% in each case. The EC50 in assay [1] is under 10 nM; in assay [2], under 10 nM; in assay [3], 0.07 nM. In assay [3], this compound came in with an inhibition at 0.1 µM of 88%.
`C[S+]([O-])c1ccc(C#N)cc1-c1cc(=O)c2c(F)cc(F)cc2[nH]1` (centres unmarked) [Example 7, 3-(5,7-difluoro-4-oxo-1,4-dihydroquinolin-2-yl)-4-(methylsulfinyl)benzonitrile]: the Emax in assay [1] and in assay [2] was over 100% throughout. Also, the EC50 in assay [1] was 1000 to 10000 nM; in assay [2] it was over 10000 nM. In assay [3], this compound displayed an inhibition at 0.1 µM of 26%.
For `CS(=N)(=O)c1ccc(C#N)cc1-c1cc(=O)c2c(F)cc(F)cc2[nH]1` (centres unmarked) [Example 8, 3-(5,7-difluoro-4-oxo-1,4-dihydroquinolin-2-yl)-4-(S-methylsulfonimidoyl)benzonitrile], the Emax in assay [1] and in assay [2] was over 100% throughout. Also, the EC50 in assay [1] and in assay [2] was 100 to 1000 nM in each case. Moreover, the inhibition at 0.1 µM in assay [3] is 84%.
For the compound `CC(C)CS(=O)(=O)c1ccc(C#N)cc1-c1cc(=O)c2c(F)cc(F)cc2[nH]1` [Example 13, 3-5,7-difluoro-4-oxo-1,4-dihydroquinolin-2-yl-4-(isobutylsulfonyl)benzonitrile], in assay [1], the Emax was under 100% and the EC50 lay in the range of 1000 to 10000 nM. In addition, in assay [2], the Emax is under 100% and the concentration for a half-maximal effect (EC50) fell in the range of 1000 to 10000 nM. The inhibition at 0.1 µM in assay [3] is 77%.
As for `CS(=O)(=O)c1ccc(C#N)cc1-c1cc(=O)c2ccc(Cl)cc2[nH]1` [Example 9, 3-(7-chloro-4-oxo-1,4-dihydroquinolin-2-yl)-4-(methylsulfonyl)benzonitrile], in assay [1], the Emax was over 100% and the EC50 was 10 to 100 nM. Besides, in assay [2], the Emax is over 100% and the 50% effective concentration (EC50) lay within 10 to 100 nM. In assay [3], this compound registered an inhibition at 0.1 µM of 85% and a 50% effective concentration (EC50) of 0.9 nM.
For the compound `CCS(=O)(=O)c1ccc(C#N)cc1-c1cc(=O)c2c(F)cc(F)cc2[nH]1` [Example 2, 3-(5,7-difluoro-4-oxo-1,4-dihydroquinolin-2-yl)-4-(ethylsulfonyl)-benzonitrile], in assay [1], the Emax was over 100% and the EC50 was 100 to 1000 nM. In addition, in assay [2], the Emax is over 100% and the EC50 is 100 to 1000 nM. This compound also displayed an inhibition at 0.1 µM in assay [3] of 86%.
As for `CS(=O)(=O)c1ccc(C#N)cc1-c1cc(=O)c2c(F)cc(F)cc2[nH]1` [Example 1, 3-(5,7-difluoro-4-oxo-1,4-dihydroquinolin-2-yl)-4-(methylsulfonyl)benzonitrile], in assay [1], the Emax was over 100% and the concentration for a half-maximal effect (EC50) was 100 to 1000 nM. Also, in assay [2], the Emax is over 100% and the concentration giving a half-maximal response (EC50) is 100 to 1000 nM. In addition, in assay [3], the inhibition at 0.1 µM was 88% and the half-maximal effective concentration (EC50) was found to be 1.3 nM.
As to `CC(C)S(=O)(=O)c1ccc(C#N)cc1-c1cc(=O)c2c(F)cc(F)cc2[nH]1` [Example 12, 3-(5,7-difluoro-4-oxo-1,4-dihydroquinolin-2-yl)-4-(isopropylsulfonyl)benzonitrile], in assay [1], the Emax is under 100% and the EC50 is over 10000 nM. In assay [2], the Emax was under 100% and the EC50 was over 10000 nM. Also, in assay [3], the inhibition at 0.1 µM amounted to 67%.
Take `Cn1cc(-c2c(F)cc3[nH]c(-c4cc(C#N)ccc4S(C)(=O)=O)cc(=O)c3c2F)cn1` [Example 14]: in assay [1], the Emax was over 100% and the concentration for a half-maximal effect (EC50) lay in the range of 10 to 100 nM. For the same compound, in assay [2], the Emax is over 100% and the EC50 is 10 to 100 nM. Testing at 0.1 µM in assay [3] gave an inhibition of 89%.
With `CN1CCN(c2c(F)cc3[nH]c(-c4cc(C#N)ccc4S(C)(=O)=O)cc(=O)c3c2F)CC1` [Example 3, 3-(5,7-difluoro-6-(4-methylpiperazin-1-yl)-4-oxo-1,4-dihydroquinolin-2-yl)-4-(methylsulfonyl)-benzonitrile], in assay [1], the Emax is over 100% and the EC50 was in the range of 100 to 1000 nM. Moreover, in assay [2], the Emax was over 100% and the half-maximal effective concentration (EC50) is 100 to 1000 nM. This compound also yielded an inhibition at 0.1 µM in assay [3] of 66%.
